In brackets after ≈: the same amount, converted by molar mass.
Key:
[1] = Permeability of compound; type: ADME; conditions: not told; read-out: permeability
[2] = Solubility of compound by CLND method; type: physicochemical
[3] = Half life in Sprague-Dawley rat at 1 mg/kg, iv or 2 mg/kg, po; type: ADME, organism-based; conditions: in vivo
[4] = Oral bioavailability in Sprague-Dawley rat at 2 mg/kg; type: ADME, organism-based; conditions: in vivo; for bioavailability: Sprague-Dawley
[5] = AUC in Sprague-Dawley rat at 2 mg/kg, po; type: ADME, organism-based; conditions: in vivo
[6] = Volume of distribution in Sprague-Dawley rat at 1 mg/kg, iv or 2 mg/kg, po; type: ADME, organism-based; conditions: in vivo
[7] = Clearance in Sprague-Dawley rat at 1 mg/kg, iv or 2 mg/kg, po; type: ADME, organism-based; conditions: in vivo
[8] = Clearance in Sprague-Dawley rat at 0.5 mg/kg, iv or 2 mg/kg, po; type: ADME, organism-based; conditions: in vivo
[9] = Half life in Sprague-Dawley rat at 0.5 mg/kg, iv or 2 mg/kg, po; type: ADME, organism-based; conditions: in vivo
[10] = Volume of distribution in Sprague-Dawley rat at 0.5 mg/kg, iv or 2 mg/kg, po; type: ADME, organism-based; conditions: in vivo
[11] = Volume of distribution in Sprague-Dawley rat at 1 mg/kg, iv or 5 mg/kg, po; type: ADME, organism-based; conditions: in vivo
[12] = AUC in Sprague-Dawley rat at 5 mg/kg, po; type: ADME, organism-based; conditions: in vivo
[13] = Oral bioavailability in Sprague-Dawley rat at 5 mg/kg; type: ADME, organism-based; conditions: in vivo
[14] = Half life in Sprague-Dawley rat at 1 mg/kg, iv or 5 mg/kg, po; type: ADME, organism-based; conditions: in vivo

| SMILES | Papp [1] [×10⁻⁶ cm/s] | solubility kinetic [2] [µM] | also measured |
| --- | --- | --- | --- |
| CN(C)Cc1ccc(S(=O)(=O)N2CCC(NC(=O)c3cc(C4CC4)on3)CC2)cc1 | 20 | 130 (≈ 56.2 µg/mL) |  |
| N[C@H]1CC[C@@H](S(=O)(=O)N2CCC(NC(=O)c3cc(C4CC4)on3)CC2)CC1 | < 1 | 420 (≈ 167 µg/mL) |  |
| CC(C)(C)CN[C@H]1CC[C@H](CS(=O)(=O)N2CCC(NC(=O)c3cc(C4CC4)on3)CC2)CC1 | 14 | 367 (≈ 176 µg/mL) |  |
| O=C(NC1CCN(S(=O)(=O)c2ccc(CN3CCCCC3)cc2)CC1)c1cc(C2CC2)on1 | 7.9 | 26 (≈ 12.3 µg/mL) |  |
| O=C(NC1CCN(S(=O)(=O)C[C@H]2CC[C@H](NCc3cccnc3)CC2)CC1)c1cc(C2CC2)on1 | 5.5 | 194 (≈ 97.3 µg/mL) |  |
| CN(CCCC(F)(F)F)[C@H]1CC[C@H](CS(=O)(=O)N2CCC(NC(=O)c3cc(C4CC4)on3)CC2)CC1 |  | 14 (≈ 7.49 µg/mL) |  |
| O=C(NC1CCN(S(=O)(=O)C[C@H]2CC[C@H](NCc3ccccn3)CC2)CC1)c1cc(C2CC2)on1 | 6.4 | 52 (≈ 26.1 µg/mL) |  |
| CCS(=O)(=O)N1CCC(NC(=O)c2cc(C3CC3)on2)CC1 | 24 | 306 (≈ 100 µg/mL) |  |
| O=C(NC1CCN(S(=O)(=O)C[C@H]2CC[C@H](NCc3ccc(F)cn3)CC2)CC1)c1cc(C2CC2)on1 | 19 | 141 (≈ 73.3 µg/mL) | half-life [3]: 10.8 h; bioavailability [4]: 59%; AUC ([5]; Sprague-Dawley, read-out: AUC): 578 ng·h/mL; Vd [6]: 12 L/kg; clearance [7]: 17 mL/min/kg |
| CN(C)[C@H]1CC[C@H](CS(=O)(=O)N2CCC(NC(=O)c3cc(C4CC4)on3)CC2)CC1 | < 1 | 126 (≈ 55.3 µg/mL) |  |
| O=C(NC1CCN(S(=O)(=O)C[C@H]2CC[C@H](NCCCC(F)(F)F)CC2)CC1)c1cc(C2CC2)on1 | 14 | 9 (≈ 4.69 µg/mL) | clearance [8]: 20 mL/min/kg; bioavailability [4]: 79%; half-life [9]: 12.8 h; AUC ([5]; Sprague-Dawley, read-out: AUC): 676 ng·h/mL; Vd [10]: 18.9 L/kg |
| CS(=O)(=O)N1CCC(NC(=O)c2cc(C3CC3)on2)CC1 | 12 | 55 (≈ 17.2 µg/mL) | Vd [11]: 1.2 L/kg; AUC [12]: 2142 ng·h/mL; F [13]: 79%; half-life [14]: 2.5 h |
| O=C(NC1CCN(S(=O)(=O)C[C@H]2CC[C@H](NCc3cccc(Cl)c3)CC2)CC1)c1cc(C2CC2)on1 | 18 | 4 (≈ 2.14 µg/mL) |  |
| O=C(NC1CCN(S(=O)(=O)C[C@H]2CC[C@H](NCc3ccccc3)CC2)CC1)c1cc(C2CC2)on1 |  | 1 (≈ 0.501 µg/mL) | clearance [8]: 90 mL/min/kg; bioavailability [4]: 79%; half-life [9]: 3.6 h; AUC ([5]; Sprague-Dawley, read-out: AUC): 149 ng·h/mL; Vd [10]: 16.1 L/kg |
| NCCS(=O)(=O)N1CCC(NC(=O)c2cc(C3CC3)on2)CC1 | < 1 | 375 (≈ 128 µg/mL) |  |
| O=C(NC1CCN(S(=O)(=O)C[C@H]2CC[C@H](NCc3cc(F)ccn3)CC2)CC1)c1cc(C2CC2)on1 | 6.6 |  |  |
| O=C(NC1CCN(S(=O)(=O)C[C@H]2CC[C@H](NCc3cccc(F)c3)CC2)CC1)c1cc(C2CC2)on1 | 20 | 277 (≈ 144 µg/mL) |  |
| CCCN[C@H]1CC[C@H](CS(=O)(=O)N2CCC(NC(=O)c3cc(C4CC4)on3)CC2)CC1 | 3.5 | 143 (≈ 64.7 µg/mL) |  |
| O=C(NC1CCN(S(=O)(=O)[C@H]2CC[C@H](NCCCC(F)(F)F)CC2)CC1)c1cc(C2CC2)on1 |  |  | half-life [3]: 8.6 h; bioavailability [4]: 86%; AUC ([5]; Sprague-Dawley, read-out: AUC): 967 ng·h/mL; Vd [6]: 12.5 L/kg; clearance [7]: 20 mL/min/kg |
| O=C(NC1CCN(S(=O)(=O)c2ccc(CN3CCC3)cc2)CC1)c1cc(C2CC2)on1 | 16 | 302 (≈ 134 µg/mL) |  |
| O=C(NC1CCN(S(=O)(=O)C[C@H]2CC[C@H](NCc3ccccc3F)CC2)CC1)c1cc(C2CC2)on1 | 32 | 297 (≈ 154 µg/mL) | half-life [3]: 1.7 h; F [4]: 65%; AUC [5]: 87 ng·h/mL; Vd [6]: 9.4 L/kg |
| N[C@H]1CC[C@H](CS(=O)(=O)N2CCC(NC(=O)c3cc(C4CC4)on3)CC2)CC1 | < 1 | 297 (≈ 122 µg/mL) |  |
| O=C(NC1CCN(S(=O)(=O)C[C@H]2CC[C@H](NCc3ccncc3)CC2)CC1)c1cc(C2CC2)on1 | 4.5 | 26 (≈ 13 µg/mL) |  |
| Cc1ccc(CN[C@H]2CC[C@H](CS(=O)(=O)N3CCC(NC(=O)c4cc(C5CC5)on4)CC3)CC2)cc1 | 14 | 10 (≈ 5.15 µg/mL) |  |
| Cc1ccccc1CN[C@H]1CC[C@H](CS(=O)(=O)N2CCC(NC(=O)c3cc(C4CC4)on3)CC2)CC1 |  | 15 (≈ 7.72 µg/mL) |  |

| SMILES | Papp [1] [×10⁻⁶ cm/s] | solubility kinetic [2] [µM] | also measured |
| --- | --- | --- | --- |
| O=C(NC1CCN(S(=O)(=O)C2CCNCC2)CC1)c1cc(C2CC2)on1 | 0.69 | 515 (≈ 197 µg/mL) | clearance [8]: 37 mL/min/kg; bioavailability [4]: 27%; half-life [9]: 2.7 h; AUC ([5]; Sprague-Dawley, read-out: AUC): 123 ng·h/mL; Vd [10]: 4.5 L/kg |
| O=C(NC1CCN(S(=O)(=O)c2ccc(CN3CCCC3)cc2)CC1)c1cc(C2CC2)on1 | 13 | 122 (≈ 55.9 µg/mL) | clearance [8]: 68 mL/min/kg; half-life [9]: 1.7 h; AUC ([5]; Sprague-Dawley, read-out: AUC): 295 ng·h/mL; Vd [10]: 6.7 L/kg |
| CCN1CCC(S(=O)(=O)N2CCC(NC(=O)c3cc(C4CC4)on3)CC2)CC1 | 5.2 | 502 (≈ 206 µg/mL) |  |
| CCN[C@H]1CC[C@H](CS(=O)(=O)N2CCC(NC(=O)c3cc(C4CC4)on3)CC2)CC1 | < 0.3 | 295 (≈ 129 µg/mL) |  |
| NCCCCS(=O)(=O)N1CCC(NC(=O)c2cc(C3CC3)on2)CC1 | < 1 | 385 (≈ 143 µg/mL) |  |
| O=C(NC1CCN(S(=O)(=O)C[C@H]2CC[C@H](NCc3ccc(Cl)cn3)CC2)CC1)c1cc(C2CC2)on1 | 22 | 14 (≈ 7.51 µg/mL) |  |
| O=C(NC1CCN(S(=O)(=O)C[C@H]2CC[C@H](NCc3cncc(F)c3)CC2)CC1)c1cc(C2CC2)on1 | 11 | 12 (≈ 6.24 µg/mL) |  |
| O=C(NC1CCN(S(=O)(=O)C2CCNC2)CC1)c1cc(C2CC2)on1 (stereo unspecified) | 2.4 | 406 (≈ 150 µg/mL) |  |
| CN1CCC(S(=O)(=O)N2CCC(NC(=O)c3cc(C4CC4)on3)CC2)CC1 | 5.6 | 474 (≈ 188 µg/mL) |  |
| O=C(NC1CCN(S(=O)(=O)C[C@H]2CC[C@H](NCc3ccc(Cl)cc3)CC2)CC1)c1cc(C2CC2)on1 | 44 | 6 (≈ 3.21 µg/mL) | half-life [3]: 7.3 h; bioavailability [4]: 70%; AUC ([5]; Sprague-Dawley, read-out: AUC): 365 ng·h/mL; Vd [6]: 14.7 L/kg; clearance [7]: 36 mL/min/kg |
| CCN(CCCC(F)(F)F)[C@H]1CC[C@H](CS(=O)(=O)N2CCC(NC(=O)c3cc(C4CC4)on3)CC2)CC1 | 41 | 53 (≈ 29.1 µg/mL) |  |
| CC(C)CN[C@H]1CC[C@H](CS(=O)(=O)N2CCC(NC(=O)c3cc(C4CC4)on3)CC2)CC1 | 6.1 | 434 (≈ 203 µg/mL) |  |
| CCCCN[C@H]1CC[C@H](CS(=O)(=O)N2CCC(NC(=O)c3cc(C4CC4)on3)CC2)CC1 | 6.8 | 234 (≈ 109 µg/mL) |  |
| N[C@H]1CC[C@H](S(=O)(=O)N2CCC(NC(=O)c3cc(C4CC4)on3)CC2)CC1 | < 1 | 329 (≈ 130 µg/mL) |  |
| O=C(NC1CCN(S(=O)(=O)C[C@H]2CC[C@H](NCc3ccccc3Cl)CC2)CC1)c1cc(C2CC2)on1 | 20 | 6 (≈ 3.21 µg/mL) |  |
| NCc1ccc(S(=O)(=O)N2CCC(NC(=O)c3cc(C4CC4)on3)CC2)cc1 | 5.2 | 295 (≈ 119 µg/mL) | clearance [8]: 311 mL/min/kg; half-life [9]: 0.2 h; Vd [10]: 2.3 L/kg |
| Cc1cccc(CN[C@H]2CC[C@H](CS(=O)(=O)N3CCC(NC(=O)c4cc(C5CC5)on4)CC3)CC2)c1 | 17 | 21 (≈ 10.8 µg/mL) |  |
| CC(C)(C)CCN[C@H]1CC[C@H](CS(=O)(=O)N2CCC(NC(=O)c3cc(C4CC4)on3)CC2)CC1 | 18 | 10 (≈ 4.95 µg/mL) |  |
| O=C(NC1CCN(S(=O)(=O)C[C@H]2CC[C@H](NCCC(F)(F)F)CC2)CC1)c1cc(C2CC2)on1 | 16 | 48 (≈ 24.3 µg/mL) |  |
| NC[C@H]1CC[C@H](S(=O)(=O)N2CCC(NC(=O)c3cc(C4CC4)on3)CC2)CC1 | < 1 | 479 (≈ 197 µg/mL) |  |
| Cc1ccc(CN[C@H]2CC[C@H](CS(=O)(=O)N3CCC(NC(=O)c4cc(C5CC5)on4)CC3)CC2)nc1 | 8.9 | 61 (≈ 31.5 µg/mL) |  |
| CN[C@H]1CC[C@H](CS(=O)(=O)N2CCC(NC(=O)c3cc(C4CC4)on3)CC2)CC1 | < 1 | 297 (≈ 126 µg/mL) |  |
| O=C(NC1CCN(S(=O)(=O)CCCN2CCCC2)CC1)c1cc(C2CC2)on1 | 5 | 410 (≈ 168 µg/mL) |  |
| O=C(NC1CCN(S(=O)(=O)C[C@H]2CC[C@H](NCc3ccc(F)cc3)CC2)CC1)c1cc(C2CC2)on1 |  | 3 (≈ 1.56 µg/mL) |  |
